Structures are written as SMILES. Where only a bound is given, the exact number is not on record here.

This experiment relates to HCV 1b_Huh-Luc/Neo-ET cell line (genotype 1b replicon in Huh 7 cells). The experiment in a line: HCV replicon assay (luciferase readout). The experiment is classed as cell-based. The settings on record: Hepatitis C virus, HCV 1b replicon in Huh 7 cells, 72 h incubation, EC50 range class, read-out: Inhibition of HCV genotype 1b. The procedure: Biological activity of the compounds of the invention was determined using an HCV replicon assay. The HCV 1b_Huh-Luc/Neo-ET cell line persistently expressing a bicistronic genotype 1b replicon in Huh 7 cells was obtained from ReBLikon GMBH. This cell line was used to test compound inhibition using luciferase enzyme activity readout as a measurement of compound inhibition of replicon levels.
On Day 1 (the day after plating cells), each compound is added in triplicate to the cells. Plates are incubated for 72 h prior to determining luciferase levels. Enzyme activity was measured using a Bright-Glo Kit (cat. number E2620) manufactured by Promega Corporation. The following equation was used to generate a percent control value for each compound. % Control=(Compound Luciferase Level/Control Luciferase Level)*100
The EC50 value was determined using GraphPad Prism and the following equation: Y=Bottom asymptote+(Top asymptote-Bottom asymptote)/(1+10^((Log EC50−X)*HillSlope))
EC50 values of compounds are determined several times in the replicon assay to generate average EC50 values. […]
A general note: Replicon systems follow genome replication, usually without infectious particles.

For `CC[C@H](C)[C@H](NC(=O)OC)C(=O)N1CSC[C@H]1c1ncc(-c2ccc3c(c2)Oc2ccc(-c4cnc([C@@H]5CSCN5C(=O)[C@@H](NC(=O)OC)[C@@H](C)CC)[nH]4)cc2O3)[nH]1` [Compound 67], the EC50 was under 1 nM. Take `CC[C@H](C)[C@H](NC(=O)OC)C(=O)N1CCC[C@H]1c1ncc(-c2ccc3c(c2)Oc2ccc(-c4cnc([C@@H]5CCCN5C(=O)[C@@H](NC(=O)OC)[C@@H](C)CC)[nH]4)cc2C3(C)C)[nH]1` [Compound 70]: the EC50 was under 1 nM. `COC(=O)N[C@H](C(=O)N1CCC[C@H]1c1ncc(-c2ccc3c(c2)Oc2ccc(-c4cnc([C@@H]5CCCN5C(=O)[C@@H](NC(=O)OC)[C@@H](C)OC)[nH]4)cc2C3(C)C)[nH]1)[C@@H](C)OC` [Compound 71]: the EC50 is under 1 nM. With `COC(=O)N[C@H](C(=O)N1CCC[C@H]1c1ncc(-c2ccc3c(c2)Oc2ccc(-c4cnc([C@@H]5CCCN5C(=O)[C@@H](NC(=O)OC)C5CCOCC5)[nH]4)cc2C3(C)C)[nH]1)C1CCOCC1` [Compound 75], the EC50 is under 1 nM. For the compound `CC[C@H](C)[C@H](NC(=O)OC)C(=O)N1CCC[C@H]1c1ncc(-c2ccc3c(c2)Oc2ccc(-c4cnc([C@@H]5CCCN5C(=O)[C@@H](NC(=O)OC)[C@@H](C)CC)[nH]4)cc2C32CC2)[nH]1` [Compound 79], the EC50 was under 1 nM. In the case of `COC(=O)N[C@H](C(=O)N1CCC[C@H]1c1ncc(-c2ccc3c(=O)c4cc(-c5cnc([C@@H]6CSCN6C(=O)[C@@H](NC(=O)OC)[C@@H](C)OC)[nH]5)ccc4oc3c2)[nH]1)[C@@H](C)OC` [Compound 120] it was under 1 nM; in that of `COC(=O)N[C@@H](C(=O)N1CCC[C@H]1c1ncc(-c2ccc3c(=O)c4cc(-c5cnc([C@@H]6CSCN6C(=O)[C@H](NC(=O)OC)c6ccccc6)[nH]5)ccc4oc3c2)[nH]1)c1ccccc1` [Compound 121], under 1 nM. The result for `COC(=O)N[C@H](C(=O)N1CCC[C@H]1c1ncc(-c2ccc3c(=O)c4cc(-c5cnc([C@@H]6CSCN6C(=O)[C@@H](NC(=O)OC)C(C)C)[nH]5)ccc4oc3c2)[nH]1)C(C)C` [Compound 122] reads under 1 nM; that for `CC[C@H](C)[C@H](NC(=O)OC)C(=O)N1CCC[C@H]1c1ncc(-c2ccc3c(=O)c4cc(-c5cnc([C@@H]6CSCN6C(=O)[C@@H](NC(=O)OC)[C@@H](C)CC)[nH]5)ccc4oc3c2)[nH]1` [Compound 123], under 1 nM. The result for `COC(=O)N[C@H](C(=O)N1CCC[C@H]1c1ncc(-c2ccc3c(c2)Oc2ccc(-c4cnc([C@@H]5CSCN5C(=O)[C@@H](NC(=O)OC)C(C)C)[nH]4)cc2C3)[nH]1)C(C)C` [Compound 124] reads under 1 nM; that for `CC[C@H](C)[C@H](NC(=O)OC)C(=O)N1CCC[C@H]1c1ncc(-c2ccc3c(c2)Oc2ccc(-c4cnc([C@@H]5CSCN5C(=O)[C@@H](NC(=O)OC)[C@@H](C)CC)[nH]4)cc2C3)[nH]1` [Compound 125], under 1 nM; that for `COC(=O)N[C@H](C(=O)N1CCC[C@H]1c1ncc(-c2ccc3oc4cc(-c5cnc([C@@H]6CCCN6C(=O)[C@@H](NC(=O)OC)C(C)C)[nH]5)c(C)cc4c(=O)c3c2)[nH]1)C(C)C` [Compound 126], under 1 nM. On to `COC(=O)N[C@@H](C(=O)N1CCC[C@H]1c1ncc(-c2ccc3oc4cc(-c5cnc([C@@H]6CCCN6C(=O)[C@H](NC(=O)OC)c6ccccc6)[nH]5)c(C)cc4c(=O)c3c2)[nH]1)c1ccccc1` [Compound 127], for which the EC50 was under 1 nM. The result for `COC(=O)N[C@H](C(=O)N1CSC[C@H]1c1ncc(-c2ccc3c(=O)c4cc(-c5cnc([C@@H]6CSCN6C(=O)[C@@H](NC(=O)OC)C(C)C)[nH]5)ccc4oc3c2)[nH]1)C(C)C` [Compound 128] reads under 1 nM; that for `COC(=O)N[C@@H](C(=O)N1CSC[C@H]1c1ncc(-c2ccc3c(=O)c4cc(-c5cnc([C@@H]6CSCN6C(=O)[C@H](NC(=O)OC)c6ccccc6)[nH]5)ccc4oc3c2)[nH]1)c1ccccc1` [Compound 129], under 1 nM. For `CC[C@H](C)[C@H](NC(=O)OC)C(=O)N1CCC[C@H]1c1ncc(-c2ccc3c(=O)c4cc(-c5cnc([C@@H]6COCCN6C(=O)[C@@H](NC(=O)OC)[C@@H](C)CC)[nH]5)ccc4oc3c2)[nH]1` [Compound 130], the EC50 was under 1 nM. As for `COC(=O)N[C@H](C(=O)N1CCC[C@H]1c1ncc(-c2ccc3c(=O)c4cc(-c5cnc([C@@H]6COCCN6C(=O)[C@@H](NC(=O)OC)[C@@H](C)OC)[nH]5)ccc4oc3c2)[nH]1)[C@@H](C)OC` [Compound 131], the EC50 was under 1 nM.

Turning to `CC[C@H](C)[C@H](NC(=O)OC)C(=O)N1CCCC[C@H]1c1ncc(-c2ccc3oc4cc(-c5cnc([C@@H]6CCCN6C(=O)[C@@H](NC(=O)OC)[C@@H](C)CC)[nH]5)ccc4c(=O)c3c2)[nH]1` [Compound 132], the EC50 was under 1 nM.

Consider `COC(=O)N[C@H](C(=O)N1CCC[C@H]1c1ncc(-c2ccc3c(c2)C(C)(C)c2ccc(-c4ccc5nc([C@@H]6CCCN6C(=O)[C@@H](NC(=O)OC)C(C)C)[nH]c5c4)cc2O3)[nH]1)C(C)C` [Compound 133], for which the EC50 is under 1 nM.

As for `COC(=O)N[C@@H](C(=O)N1CCC[C@H]1c1ncc(-c2ccc3c(c2)C(C)(C)c2ccc(-c4ccc5nc([C@@H]6CCCN6C(=O)[C@H](NC(=O)OC)c6ccccc6)[nH]c5c4)cc2O3)[nH]1)c1ccccc1` [Compound 134], the EC50 is under 1 nM. For `COC(=O)N[C@H](C(=O)N1CCC[C@H]1c1nc2ccc(-c3ccc4c(=O)c5cc(-c6cnc([C@@H]7CCCN7C(=O)[C@@H](NC(=O)OC)[C@@H](C)OC)[nH]6)ccc5oc4c3)cc2[nH]1)C(C)C` [Compound 135], the EC50 is under 1 nM.

Regarding `CC[C@H](C)[C@H](NC(=O)OC)C(=O)N1CCC[C@H]1c1ncc(-c2ccc3oc4cc(-c5ccc6nc([C@@H]7CCCN7C(=O)[C@@H](NC(=O)OC)C(C)C)[nH]c6c5)ccc4c(=O)c3c2)[nH]1` [Compound 136], the EC50 is under 1 nM. Take `COC(=O)N[C@H](C(=O)N1CCC[C@H]1c1nc2ccc(-c3ccc4c(=O)c5cc(-c6cnc([C@@H]7CCCN7C(=O)[C@H](NC(=O)OC)c7ccccc7)[nH]6)ccc5oc4c3)cc2[nH]1)C(C)C` [Compound 137]: the EC50 was under 1 nM. The result for `CC[C@H](C)[C@H](NC(=O)OC)C(=O)N1CCC[C@H]1c1ncc(-c2ccc3c(=O)c4cc(-c5cnc([C@@H]6CCCN6C(=O)[C@@H](NC(=O)OC)[C@@H](C)CC)[nH]5)ccc4oc3c2)[nH]1` [Compound 138] reads under 1 nM.

Consider `COC(=O)N[C@H](C(=O)N1CCC[C@H]1c1ncc(-c2ccc3c(=O)c4cc(-c5cnc([C@@H]6CCCN6C(=O)[C@@H](NC(=O)OC)C6CCCC6)[nH]5)ccc4oc3c2)[nH]1)C1CCCC1` [Compound 139], for which the EC50 is under 1 nM.

For `COC(=O)N[C@H](C(=O)N1CCCC[C@H]1c1ncc(-c2ccc3oc4cc(-c5cnc([C@@H]6CCCN6C(=O)[C@@H](NC(=O)OC)[C@@H](C)OC)[nH]5)ccc4c(=O)c3c2)[nH]1)[C@@H](C)OC` [Compound 140], the EC50 was under 1 nM.

For `COC(=O)N[C@H](C(=O)N1CCCC[C@H]1c1ncc(-c2ccc3oc4cc(-c5cnc([C@@H]6CCCN6C(=O)[C@@H](NC(=O)OC)C(C)C)[nH]5)ccc4c(=O)c3c2)[nH]1)C(C)C` [Compound 141], the EC50 was under 1 nM. Consider `COC(=O)N[C@H](C(=O)N1CCC[C@H]1c1ncc(-c2ccc3c(=O)c4cc(-c5cnc([C@@H]6COCCN6C(=O)[C@@H](NC(=O)OC)C(C)C)[nH]5)ccc4oc3c2)[nH]1)C(C)C` [Compound 142], for which the EC50 was under 1 nM.

As for `CC[C@H](C)[C@H](NC(=O)OC)C(=O)N1CCC[C@H]1c1ncc(-c2ccc3c(c2)Oc2ccc(-c4cnc([C@@H]5COCCN5C(=O)[C@@H](NC(=O)OC)[C@@H](C)CC)[nH]4)cc2C3)[nH]1` [Compound 143], the EC50 was under 1 nM. Consider `COC(=O)N[C@H](C(=O)N1CCC[C@H]1c1ncc(-c2ccc3c(c2)Oc2ccc(-c4cnc([C@@H]5COCCN5C(=O)[C@@H](NC(=O)OC)C(C)C)[nH]4)cc2C3)[nH]1)C(C)C` [Compound 144], for which the EC50 was under 1 nM. The result for `CC[C@H](C)[C@H](NC(=O)OC)C(=O)N1CCC[C@H]1c1ncc(-c2ccc3oc4cc(-c5ccc6nc([C@@H]7CCCN7C(=O)[C@@H](NC(=O)OC)[C@@H](C)OC)[nH]c6c5)ccc4c(=O)c3c2)[nH]1` [Compound 145] reads under 1 nM; that for `COC(=O)N[C@H](C(=O)N1CCC[C@H]1c1ncc(-c2ccc3c(c2)C(C)(C)c2ccc(-c4ccc5nc([C@@H]6CCCN6C(=O)[C@@H](NC(=O)OC)[C@@H](C)OC)[nH]c5c4)cc2O3)[nH]1)[C@@H](C)OC` [Compound 146], under 1 nM. The result for `[2H]C([2H])([2H])C([2H])(C([2H])([2H])[2H])[C@]([2H])(NC(=O)OC)C(=O)N1CCC[C@H]1c1ncc(-c2ccc3c(c2)C(C)(C)c2ccc(-c4ccc5nc([C@@H]6CCCN6C(=O)[C@@]([2H])(NC(=O)OC)C([2H])(C([2H])([2H])[2H])C([2H])([2H])[2H])[nH]c5c4)cc2O3)[nH]1` [Compound 147] reads under 1 nM; that for `C=CC[C@H](NC(=O)OC)C(=O)N1CCC[C@H]1c1ncc(-c2ccc3c(c2)C(C)(C)c2ccc(-c4ccc5nc([C@@H]6CCCN6C(=O)[C@H](CC=C)NC(=O)OC)[nH]c5c4)cc2O3)[nH]1` [Compound 148], under 1 nM. In the case of `COC(=O)N[C@H](C(=O)N1CCC[C@H]1c1ncc(-c2ccc3c(c2)C(C)(C)c2ccc(-c4ccc5nc([C@@H]6CCCN6C(=O)[C@@H](NC(=O)OC)C6CCOCC6)[nH]c5c4)cc2O3)[nH]1)C1CCOCC1` [Compound 149] it was under 1 nM.

The record behind these values is patent US8999967B2, “Tricyclic fused ring inhibitors of hepatitis C” (Presidio Pharmaceuticals, Inc., priority 2010, dated 2015).
